From PMC8398766, “Do Small Molecules Activate the TrkB Receptor in the Same Manner as BDNF? Limitations of Published TrkB Low Molecular Agonists and Screening for Novel TrkB Orthosteric Agonists” (Pharmaceuticals, 2021)

What was measured:
Experiment in all cases: BioPrint Profile Panel
Type in all cases: binding
5-HT transporter = target: T1, 5-HT transporter (Homo sapiens, UniProt P31645); conditions: Antagonist, read-out: % of specific inhibition
T1 construct: purchased Eurofins Discovery (Cerep) BioPrint Profile Panel
Excerpt: (§1) The BioPrint® Profile Panel service offered by Eurofins Discovery (Poitiers, France) was chosen to perform selectivity analysis.

5-HT1A = target: T2, 5-HT1A (Homo sapiens, UniProt P08908); conditions: Agonist, Receptor, read-out: % of specific inhibition
T2 construct: purchased Eurofins Discovery (Cerep) BioPrint Profile Panel
Excerpt: as §1

5-HT2B = target: T3, 5-HT2B (Homo sapiens, UniProt P41595); conditions: Agonist, Receptor
T3 construct: purchased Eurofins Discovery (Cerep) BioPrint Profile Panel
T3 sequence (P41595 whole entry): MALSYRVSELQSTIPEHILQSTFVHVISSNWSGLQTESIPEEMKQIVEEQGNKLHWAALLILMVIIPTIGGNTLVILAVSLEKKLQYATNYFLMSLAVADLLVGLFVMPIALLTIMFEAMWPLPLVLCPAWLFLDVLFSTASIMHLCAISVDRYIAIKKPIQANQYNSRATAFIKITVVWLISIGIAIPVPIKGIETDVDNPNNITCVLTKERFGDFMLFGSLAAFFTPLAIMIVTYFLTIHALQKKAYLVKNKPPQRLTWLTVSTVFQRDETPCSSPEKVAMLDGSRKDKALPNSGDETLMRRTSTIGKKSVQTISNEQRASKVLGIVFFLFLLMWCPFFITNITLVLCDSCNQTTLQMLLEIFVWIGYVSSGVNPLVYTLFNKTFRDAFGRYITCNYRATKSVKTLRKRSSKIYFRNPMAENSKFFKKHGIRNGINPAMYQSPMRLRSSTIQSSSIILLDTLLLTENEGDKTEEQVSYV
Excerpt: as §1

5-HT3 = target: T4, 5-HT3 (Homo sapiens, UniProt P46098); conditions: Antagonist, Ion Channel, read-out: % of specific inhibition
T4 construct: purchased Eurofins Discovery (Cerep) BioPrint Profile Panel
T4 sequence (P46098 24-478): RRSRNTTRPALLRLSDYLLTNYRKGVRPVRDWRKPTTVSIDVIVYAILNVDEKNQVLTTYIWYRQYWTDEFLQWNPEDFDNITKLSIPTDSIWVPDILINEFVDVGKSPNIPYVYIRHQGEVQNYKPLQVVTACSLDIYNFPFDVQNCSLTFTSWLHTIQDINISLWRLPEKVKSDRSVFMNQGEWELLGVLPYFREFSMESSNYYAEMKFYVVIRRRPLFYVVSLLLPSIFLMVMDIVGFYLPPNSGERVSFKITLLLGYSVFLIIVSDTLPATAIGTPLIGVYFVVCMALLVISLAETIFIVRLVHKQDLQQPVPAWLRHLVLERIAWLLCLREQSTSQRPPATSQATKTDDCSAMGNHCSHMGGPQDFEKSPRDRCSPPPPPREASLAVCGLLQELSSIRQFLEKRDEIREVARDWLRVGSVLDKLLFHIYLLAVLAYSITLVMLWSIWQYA
Excerpt: as §1

5-HT4e = target: T5, 5-HT4e (Homo sapiens, UniProt Q13639); conditions: Antagonist, Receptor, read-out: % of specific inhibition
T5 construct: purchased Eurofins Discovery (Cerep) BioPrint Profile Panel
T5 sequence (Q13639 1-378 isoform Q13639-5): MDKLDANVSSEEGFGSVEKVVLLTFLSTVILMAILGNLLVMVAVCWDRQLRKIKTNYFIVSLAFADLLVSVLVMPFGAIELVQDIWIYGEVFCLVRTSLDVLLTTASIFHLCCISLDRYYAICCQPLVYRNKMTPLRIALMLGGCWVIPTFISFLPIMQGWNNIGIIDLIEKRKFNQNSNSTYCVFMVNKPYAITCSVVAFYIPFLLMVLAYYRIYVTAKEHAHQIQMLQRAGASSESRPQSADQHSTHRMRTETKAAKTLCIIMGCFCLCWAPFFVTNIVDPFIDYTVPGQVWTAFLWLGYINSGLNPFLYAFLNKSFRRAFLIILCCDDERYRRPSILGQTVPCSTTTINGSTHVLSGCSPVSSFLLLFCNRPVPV
Excerpt: as §1

A2A = target: T6, A2A (Homo sapiens, UniProt P29274); conditions: Agonist, Receptor
T6 construct: purchased Eurofins Discovery (Cerep) BioPrint Profile Panel
T6 sequence (P29274 whole entry): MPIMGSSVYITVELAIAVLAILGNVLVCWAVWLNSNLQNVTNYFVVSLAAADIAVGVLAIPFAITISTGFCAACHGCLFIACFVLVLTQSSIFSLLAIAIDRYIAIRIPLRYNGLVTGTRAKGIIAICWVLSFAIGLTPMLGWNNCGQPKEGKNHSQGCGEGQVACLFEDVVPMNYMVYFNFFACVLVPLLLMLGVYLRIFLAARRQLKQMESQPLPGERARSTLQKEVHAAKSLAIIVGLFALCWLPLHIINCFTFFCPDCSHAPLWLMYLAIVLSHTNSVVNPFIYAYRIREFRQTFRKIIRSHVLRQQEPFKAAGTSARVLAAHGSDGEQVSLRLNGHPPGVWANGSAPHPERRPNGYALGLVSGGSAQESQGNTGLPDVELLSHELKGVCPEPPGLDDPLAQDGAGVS
Excerpt: as §1

AT1 = target: T7, AT1 (Homo sapiens, UniProt P30556); conditions: Antagonist, Receptor, read-out: % of specific inhibition
T7 construct: purchased Eurofins Discovery (Cerep) BioPrint Profile Panel
Excerpt: as §1

B2 = target: T8, B2 (Homo sapiens, UniProt P30411); conditions: Agonist, Receptor, read-out: % of specific inhibition
T8 construct: purchased Eurofins Discovery (Cerep) BioPrint Profile Panel
Excerpt: as §1

CB1 = target: T9, CB1 (Homo sapiens, UniProt P21554); conditions: Agonist, Receptor, read-out: % of specific inhibition
T9 construct: purchased Eurofins Discovery (Cerep) BioPrint Profile Panel
Excerpt: as §1

CCK1 = target: T10, CCK1 (Homo sapiens, UniProt P32238); conditions: Agonist, Receptor, read-out: % of specific inhibition
T10 construct: purchased Eurofins Discovery (Cerep) BioPrint Profile Panel
T10 sequence (P32238 whole entry): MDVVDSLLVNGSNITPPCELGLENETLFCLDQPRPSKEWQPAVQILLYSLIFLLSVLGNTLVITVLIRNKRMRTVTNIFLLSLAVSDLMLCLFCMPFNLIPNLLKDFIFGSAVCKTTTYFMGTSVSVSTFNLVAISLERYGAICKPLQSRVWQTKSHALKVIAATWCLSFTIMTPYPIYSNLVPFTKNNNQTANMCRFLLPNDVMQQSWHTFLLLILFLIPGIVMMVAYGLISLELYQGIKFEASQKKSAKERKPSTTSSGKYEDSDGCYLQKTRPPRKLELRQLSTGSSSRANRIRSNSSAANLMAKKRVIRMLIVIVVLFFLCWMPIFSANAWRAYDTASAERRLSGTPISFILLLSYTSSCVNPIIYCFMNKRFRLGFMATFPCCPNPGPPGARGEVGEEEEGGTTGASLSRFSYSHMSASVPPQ
Excerpt: as §1

CCK2 (CCKB) = target: T11, CCK2 (CCKB) (Homo sapiens, UniProt P32239); conditions: Agonist, Receptor, read-out: % of specific inhibition
T11 construct: purchased Eurofins Discovery (Cerep) BioPrint Profile Panel
Excerpt: as §1

CCR2 = target: T12, CCR2 (Homo sapiens, UniProt P41597); conditions: Agonist, Receptor, read-out: % of specific inhibition
T12 construct: purchased Eurofins Discovery (Cerep) BioPrint Profile Panel
T12 sequence (P41597 whole entry): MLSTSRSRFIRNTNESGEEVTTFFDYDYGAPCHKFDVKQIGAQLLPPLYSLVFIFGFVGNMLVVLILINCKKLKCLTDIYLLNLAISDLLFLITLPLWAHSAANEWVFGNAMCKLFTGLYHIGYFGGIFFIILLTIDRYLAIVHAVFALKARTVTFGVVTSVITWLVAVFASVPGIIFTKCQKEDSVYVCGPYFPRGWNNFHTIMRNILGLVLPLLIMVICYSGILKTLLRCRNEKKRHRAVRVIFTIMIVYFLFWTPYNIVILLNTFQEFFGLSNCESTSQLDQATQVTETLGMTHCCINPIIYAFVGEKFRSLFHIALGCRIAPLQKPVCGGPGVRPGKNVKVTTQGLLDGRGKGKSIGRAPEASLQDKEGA
Excerpt: as §1

Ca2+ channel = conditions: 10 μM, Antagonist, Ion Channel
Excerpt: as §1

Cl- channel = conditions: 10 μM; Antagonist; Ion Channel
Excerpt: as §1

CysLT1 (LTD4) = target: T13, CysLT1 (LTD4) (Homo sapiens, UniProt Q9Y271); conditions: Agonist, Receptor, read-out: % of specific inhibition
T13 construct: purchased Eurofins Discovery (Cerep) BioPrint Profile Panel
Excerpt: as §1

ETA = target: T14, ETA (Homo sapiens, UniProt P25101); conditions: Agonist, Receptor, read-out: % of specific inhibition
T14 construct: purchased Eurofins Discovery (Cerep) BioPrint Profile Panel
T14 sequence (P25101 21-427): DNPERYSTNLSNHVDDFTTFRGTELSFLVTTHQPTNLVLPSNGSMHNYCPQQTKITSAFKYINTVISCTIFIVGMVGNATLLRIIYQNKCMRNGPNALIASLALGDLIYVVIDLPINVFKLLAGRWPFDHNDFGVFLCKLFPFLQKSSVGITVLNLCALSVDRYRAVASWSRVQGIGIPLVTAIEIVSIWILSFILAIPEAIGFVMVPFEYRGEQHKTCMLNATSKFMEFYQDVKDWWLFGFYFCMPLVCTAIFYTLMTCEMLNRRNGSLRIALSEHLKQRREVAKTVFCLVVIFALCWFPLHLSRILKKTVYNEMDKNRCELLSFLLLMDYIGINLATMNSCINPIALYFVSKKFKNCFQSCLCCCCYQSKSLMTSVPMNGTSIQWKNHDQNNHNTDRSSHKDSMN
Excerpt: as §1

FP = target: T15, FP (Homo sapiens, UniProt P43088); conditions: Agonist, Receptor, read-out: % of specific inhibition
T15 construct: purchased Eurofins Discovery (Cerep) BioPrint Profile Panel
T15 sequence (P43088 whole entry): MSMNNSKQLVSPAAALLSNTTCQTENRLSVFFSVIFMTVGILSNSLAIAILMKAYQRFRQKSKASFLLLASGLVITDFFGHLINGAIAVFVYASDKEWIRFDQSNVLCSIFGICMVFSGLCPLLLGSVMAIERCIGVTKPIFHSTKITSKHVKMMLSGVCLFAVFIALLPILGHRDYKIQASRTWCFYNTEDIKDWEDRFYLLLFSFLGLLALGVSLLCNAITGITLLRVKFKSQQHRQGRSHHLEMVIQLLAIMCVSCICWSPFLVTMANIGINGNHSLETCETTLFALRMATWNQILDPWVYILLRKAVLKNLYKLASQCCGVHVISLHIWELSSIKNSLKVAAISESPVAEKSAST
Excerpt: as §1

GABA transporter = conditions: 10 μM, Antagonist
Excerpt: as §1

IP (PGI2) = target: T16, IP (PGI2) (Homo sapiens, UniProt P43119); conditions: Agonist, Receptor, read-out: % of specific inhibition
T16 construct: purchased Eurofins Discovery (Cerep) BioPrint Profile Panel
T16 sequence (P43119 whole entry): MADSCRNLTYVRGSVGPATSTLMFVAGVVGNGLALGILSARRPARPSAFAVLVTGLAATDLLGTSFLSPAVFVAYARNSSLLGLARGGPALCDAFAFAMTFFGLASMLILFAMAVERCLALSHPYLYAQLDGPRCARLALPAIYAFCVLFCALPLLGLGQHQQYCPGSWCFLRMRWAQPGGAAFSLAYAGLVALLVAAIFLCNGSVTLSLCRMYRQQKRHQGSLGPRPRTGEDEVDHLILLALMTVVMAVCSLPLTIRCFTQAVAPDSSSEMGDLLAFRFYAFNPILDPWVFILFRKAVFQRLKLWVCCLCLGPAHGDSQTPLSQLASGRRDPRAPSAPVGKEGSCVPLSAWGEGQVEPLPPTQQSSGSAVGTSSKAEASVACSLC
Excerpt: as §1

LXRβ = target: T17, LXRβ (Homo sapiens, UniProt P55055); conditions: Agonist, Receptor, read-out: % of specific inhibition
T17 construct: purchased Eurofins Discovery (Cerep) BioPrint Profile Panel
T17 sequence (P55055 whole entry): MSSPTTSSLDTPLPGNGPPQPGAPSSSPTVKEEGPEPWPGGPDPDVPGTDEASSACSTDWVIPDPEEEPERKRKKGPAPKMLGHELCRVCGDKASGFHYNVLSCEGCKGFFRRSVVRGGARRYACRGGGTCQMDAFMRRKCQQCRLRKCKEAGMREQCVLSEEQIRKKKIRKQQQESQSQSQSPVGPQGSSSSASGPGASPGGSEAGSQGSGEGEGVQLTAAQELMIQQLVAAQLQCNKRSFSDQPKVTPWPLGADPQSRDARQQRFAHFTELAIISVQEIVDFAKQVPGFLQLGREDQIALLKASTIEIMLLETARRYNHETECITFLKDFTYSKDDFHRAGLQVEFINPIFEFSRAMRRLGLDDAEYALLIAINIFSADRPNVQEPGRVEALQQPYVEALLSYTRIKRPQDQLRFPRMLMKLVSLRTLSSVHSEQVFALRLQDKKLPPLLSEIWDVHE
Excerpt: as §1

M3 = target: T18, M3 (Homo sapiens, UniProt P20309); conditions: Antagonist, Receptor, read-out: % of specific inhibition
T18 construct: purchased Eurofins Discovery (Cerep) BioPrint Profile Panel
Excerpt: as §1

M4 = target: T19, M4 (Homo sapiens, UniProt P08173); conditions: Antagonist, Receptor, read-out: % of specific inhibition
T19 construct: purchased Eurofins Discovery (Cerep) BioPrint Profile Panel
Excerpt: as §1

MC3 = target: T20, MC3 (Homo sapiens, UniProt P41968); conditions: Agonist, Receptor, read-out: % of specific inhibition
T20 construct: purchased Eurofins Discovery (Cerep) BioPrint Profile Panel
Excerpt: as §1

MC4 = target: T21, MC4 (Homo sapiens, UniProt P32245); conditions: Agonist, Receptor, read-out: % of specific inhibition
T21 construct: purchased Eurofins Discovery (Cerep) BioPrint Profile Panel
Excerpt: as §1

MCH1 = target: T22, MCH1 (Homo sapiens, UniProt Q99705); conditions: Agonist, Receptor, read-out: % of specific inhibition
T22 construct: purchased Eurofins Discovery (Cerep) BioPrint Profile Panel
T22 sequence (Q99705 whole entry): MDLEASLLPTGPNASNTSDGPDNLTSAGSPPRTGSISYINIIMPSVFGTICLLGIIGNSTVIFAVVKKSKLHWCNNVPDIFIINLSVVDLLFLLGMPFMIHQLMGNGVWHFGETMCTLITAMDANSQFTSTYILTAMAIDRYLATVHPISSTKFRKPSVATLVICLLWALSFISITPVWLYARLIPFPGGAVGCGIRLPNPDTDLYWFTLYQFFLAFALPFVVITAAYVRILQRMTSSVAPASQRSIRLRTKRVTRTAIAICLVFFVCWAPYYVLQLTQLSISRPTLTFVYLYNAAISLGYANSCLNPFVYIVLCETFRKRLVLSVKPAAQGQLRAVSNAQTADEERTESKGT
Excerpt: as §1

N neuronal α4β2 = target: T23, N neuronal α4β2 (Homo sapiens, UniProt P17787+P43681); conditions: Agonist, Receptor, read-out: % of specific inhibition
T23 construct: purchased Eurofins Discovery (Cerep) BioPrint Profile Panel
Excerpt: as §1

NK1 = target: T24, NK1 (Homo sapiens, UniProt P25103); conditions: Agonist, Receptor, read-out: % of specific inhibition
T24 construct: purchased Eurofins Discovery (Cerep) BioPrint Profile Panel
Excerpt: as §1

Na+ channel = conditions: 10 μM; Antagonist; Ion Channel
Excerpt: as §1

PAF = target: T25, PAF (Homo sapiens, UniProt P25105); conditions: Agonist, Receptor, read-out: % of specific inhibition
T25 construct: purchased Eurofins Discovery (Cerep) BioPrint Profile Panel
Excerpt: as §1

PCP = conditions: 10 μM; Antagonist; Ion Channel
Excerpt: as §1

RARα = target: T26, RARα (Homo sapiens, UniProt P10276); conditions: Agonist, Receptor, read-out: % of specific inhibition
T26 construct: purchased Eurofins Discovery (Cerep) BioPrint Profile Panel
Excerpt: as §1

SKCa channel = conditions: 10 μM; Antagonist; Ion Channel
Excerpt: as §1

TNF-α = conditions: 10 μM; Agonist; Receptor
Excerpt: as §1

V1a = target: T27, V1a (Homo sapiens, UniProt P37288); conditions: Agonist, Receptor, read-out: % of specific inhibition
T27 construct: purchased Eurofins Discovery (Cerep) BioPrint Profile Panel
Excerpt: as §1

V2 = target: T28, V2 (Homo sapiens, UniProt P30518); conditions: Agonist, Receptor, read-out: % of specific inhibition
T28 construct: purchased Eurofins Discovery (Cerep) BioPrint Profile Panel
Excerpt: as §1

glucagon = target: T29, glucagon (Homo sapiens, UniProt P47871); conditions: Agonist, Receptor, read-out: % of specific inhibition
T29 construct: purchased Eurofins Discovery (Cerep) BioPrint Profile Panel
Excerpt: as §1

glycine = conditions: 10 μM; Antagonist; Ion Channel
Excerpt: as §1

sigma = conditions: 10 μM; Agonist; Receptor
Excerpt: as §1

sst1 = target: T30, sst1 (Homo sapiens, UniProt P30872); conditions: Agonist, Receptor, read-out: % of specific inhibition
T30 construct: purchased Eurofins Discovery (Cerep) BioPrint Profile Panel
T30 sequence (P30872 whole entry): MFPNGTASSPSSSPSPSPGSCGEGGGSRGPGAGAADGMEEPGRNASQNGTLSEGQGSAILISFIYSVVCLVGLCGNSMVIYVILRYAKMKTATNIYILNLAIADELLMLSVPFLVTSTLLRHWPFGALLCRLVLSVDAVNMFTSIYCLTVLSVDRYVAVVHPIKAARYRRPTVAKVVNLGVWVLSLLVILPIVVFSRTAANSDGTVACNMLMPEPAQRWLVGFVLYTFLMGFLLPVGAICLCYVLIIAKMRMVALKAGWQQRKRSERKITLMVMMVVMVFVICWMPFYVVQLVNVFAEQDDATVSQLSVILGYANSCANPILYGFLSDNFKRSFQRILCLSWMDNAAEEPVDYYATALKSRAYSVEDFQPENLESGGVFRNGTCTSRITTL
Excerpt: as §1

µ (MOP) = target: T31, µ (MOP) (Homo sapiens, UniProt P35372); conditions: Agonist, Receptor, read-out: % of specific inhibition
T31 construct: purchased Eurofins Discovery (Cerep) BioPrint Profile Panel
Excerpt: as §1

α1B = target: T32, α1B (Homo sapiens, UniProt P35368); conditions: Antagonist, Receptor, read-out: % of specific inhibition
T32 construct: purchased Eurofins Discovery (Cerep) BioPrint Profile Panel
Excerpt: as §1

α2B = target: T33, α2B (Homo sapiens, UniProt P18089); conditions: Antagonist, Receptor, read-out: % of specific inhibition
T33 construct: purchased Eurofins Discovery (Cerep) BioPrint Profile Panel
Excerpt: as §1

α2C = target: T34, α2C (Homo sapiens, UniProt P18825); conditions: Antagonist, Receptor, read-out: % of specific inhibition
T34 construct: purchased Eurofins Discovery (Cerep) BioPrint Profile Panel
Excerpt: as §1

β1 = target: T35, β1 (Homo sapiens, UniProt P08588); conditions: Agonist, Receptor, read-out: % of specific inhibition
T35 construct: purchased Eurofins Discovery (Cerep) BioPrint Profile Panel
Excerpt: as §1

β2 = target: T36, β2 (Homo sapiens, UniProt P07550); conditions: Antagonist, Receptor, read-out: % of specific inhibition
T36 construct: purchased Eurofins Discovery (Cerep) BioPrint Profile Panel
Excerpt: as §1

[1] = read-out: % Inhibition of Control Specific Binding

In the case of O=c1cc(-c2ccccc2)oc2c(O)c(O)ccc12 [7,8-DHF, 7,8-dihydroxyflavone], the inhibition at 10 µM (5-HT transporter) was -4%, the inhibition at 10 µM (5-HT1A) was -26% and the “% Inhibition of Control Specific Binding” value (5-HT2B; 10 μM) was 50.2%. The inhibition at 10 µM (5-HT2B; [1]) was 50%, the inhibition at 10 µM (5-HT3) was -2% and the inhibition at 10 µM (5-HT4e) was -11%. For the same molecule, the “% Inhibition of Control Specific Binding” value (A2A; 10 μM) was 74.9%, the inhibition at 10 µM (A2A; [1]) was 75% and the inhibition at 10 µM (AT1) was 24%. The inhibition at 10 µM (B2) was -6%, the inhibition at 10 µM (CB1) was 1% and the inhibition at 10 µM (CCK1) was 21%. The inhibition at 10 µM (CCK2 (CCKB)) was 15%, the inhibition at 10 µM (CCR2) was 4% and the “% of specific inhibition” value (Ca2+ channel; first unspecified Ca2+ channel entry) was -4%. For the same molecule, the “% of specific inhibition” value (Ca2+ channel; second unspecified Ca2+ channel entry) was -6%, the “% of specific inhibition” value (Cl- channel) was -7% and the inhibition at 10 µM (CysLT1 (LTD4)) was -10%. For the same molecule, the inhibition at 10 µM (ETA) was -10%, the inhibition at 10 µM (FP) was 6% and the “% of specific inhibition” value (GABA transporter) was -2%. It also gave an inhibition at 10 µM (IP (PGI2)) of 17%, an inhibition at 10 µM (LXRβ) of 49% and an inhibition at 10 µM (M3) of -7%. The inhibition at 10 µM (M4) was -5%, the inhibition at 10 µM (MC3) was -5% and the inhibition at 10 µM (MC4) was -5%. For the same molecule, the inhibition at 10 µM (MCH1) was -12%, the inhibition at 10 µM (N neuronal α4β2) was 5% and the inhibition at 10 µM (NK1) was 11%. For the same molecule, the “% of specific inhibition” value (Na+ channel) was -11%, the inhibition at 10 µM (PAF) was -20% and the “% of specific inhibition” value (PCP) was -3%. The inhibition at 10 µM (RARα) was -16%, the “% of specific inhibition” value (SKCa channel) was 4% and the “% of specific inhibition” value (TNF-α) was 2%. The inhibition at 10 µM (V1a) was -11%, the inhibition at 10 µM (V2) was -2% and the inhibition at 10 µM (glucagon) was 3%. The “% of specific inhibition” value (glycine) was -1%, the “% of specific inhibition” value (sigma) was 3% and the inhibition at 10 µM (sst1) was 2%. It also gave an inhibition at 10 µM (µ (MOP)) of -2%, an inhibition at 10 µM (α1B) of -3% and an inhibition at 10 µM (α2B) of -2%. The inhibition at 10 µM (α2C) was 1%, the inhibition at 10 µM (β1) was -5% and the inhibition at 10 µM (β2) was -5%.
